The experiment addresses HIV protease (Human immunodeficiency virus type 1 group M subtype B, UniProt P04585). Kind of experiment: biochemical.

The structures appear in SMILES notation.

A word on the Ki: it is the dissociation constant of the complex between target and ligand, obtained from inhibition or displacement. Read a low Ki as a stronger hold on the target. As for `COc1ccc(CC(=O)N[C@@H](Cc2cccc3ccccc23)C(=O)NCCC[C@@H](CO)N(CC(C)C)S(=O)(=O)c2ccc(N)cc2)cc1` [Example 5, (2S,4S)-N-{4-[(4-Amino-benzenesulfonyl)-isobutyl-amino]-5-hydroxy-pentyl}-2-[2-(4-methoxy-phenyl)-acetylamino]-3-naphthalen-1-yl-propionamide], the Ki came out at 11 nM.
Under `COC(=O)N[C@@H](Cc1ccccc1-c1ccc(OC)cc1)C(=O)NCCC[C@@H](CO)N(CC(C)C)S(=O)(=O)c1ccc(N)cc1` [Example 6, (1S,4S)-[1-{4-[(4-Amino-benzenesulfonyl)-isobutyl-amino]-5-hydroxy-pentylcarbamoyl}-2-(4′-methoxy-biphenyl-2-yl)-ethyl]-carbamic Acid Methyl Ester] stands 13 nM; under `CC(C)CN([C@H](CO)CCCNC(=O)[C@H](Cc1cccc2ccccc12)NC(=O)OCC(F)(F)F)S(=O)(=O)c1ccc(N)cc1` [Example 7, (1S,4S)-(1-{4-[(4-Amino-benzenesulfonyl)-isobutyl-amino]-5-hydroxy-pentylcarbamoyl}-2-naphthalen-1-yl-ethyl)-carbamic Acid 2,2,2-Trifluoro-ethyl Ester], 4 nM.
Next, `CC(C)CN([C@H](CO)CCCNC(=O)[C@@H](N)Cc1cccc2ccccc12)S(=O)(=O)c1ccc(N)cc1` [Example 8, (2S,4S)-2-Amino-N-{4-[(4-amino-benzenesulfonyl)-isobutyl-amino]-5-hydroxy-pentyl}-3-naphthalen-1-yl-propionamide]: 1.6 nM; `CC(C)CN([C@H](CO)CCCNC(=O)[C@H](Cc1cccc2ccccc12)NC(=O)C1CCCCC1)S(=O)(=O)c1ccc(N)cc1` [Example 13, (1S,4S)-Cyclohexanecarboxylic Acid (1-{4-[(4-Amino-benzenesulfonyl)-isobutyl-amino]-5-hydroxy-pentylcarbamoyl}-2-naphthalen-1-yl-ethyl)-amide]: 2.3 nM; `CC(C)CN([C@H](CO)CCCNC(=O)[C@@H](N)Cc1ccccc1-c1ccccc1)S(=O)(=O)c1ccc(N)cc1` [Example 14, (2S,4S)-2-Amino-N-{4-[(4-amino-benzenesulfonyl)-isobutyl-amino]-5-hydroxy-pentyl}-3-biphenyl-2-yl-propionamide]: 7.1 nM.
Regarding `COC(=O)CN[C@@H](Cc1cccc2ccccc12)C(=O)NCCC[C@@H](CO)N(CC(C)C)S(=O)(=O)c1ccc(N)cc1` [Example 15, (1S,4S)-(1-{4-[(4-Amino-benzenesulfonyl)-isobutyl-amino]-5-hydroxy-pentylcarbamoyl}-2-naphthalen-1-yl-ethylamino)-acetic Acid Methyl Ester], the Ki is 4.2 nM.
As to `CC(C)CN([C@H](CO)CCCNC(=O)[C@@H](NC(=O)OC(C)(C)C)C(c1ccccc1)c1ccccc1)S(=O)(=O)c1ccc(N)cc1` [Example 16, (1S,4S)-(1-{4-[(4-Amino-benzenesulfonyl)-isobutyl-amino]-5-hydroxy-pentylcarbamoyl}-2,2-diphenyl-ethyl)-carbamic Acid tert-Butyl Ester], affinity was put at a Ki of 9.3 nM.
`COCCOC(=O)N[C@@H](Cc1cccc2ccccc12)C(=O)NCCC[C@@H](CO)N(CC(C)C)S(=O)(=O)c1ccc(N)cc1` [Example 17, (1S,4S)-(1-{4-[(4-Amino-benzenesulfonyl)-isobutyl-amino]-5-hydroxy-pentylcarbamoyl}-2-naphthalen-1-yl-ethyl)-carbamic Acid 2-Methoxy-ethyl Ester]: the Ki was 3.7 nM.
Under `CCOC(=O)N[C@@H](Cc1cccc2ccccc12)C(=O)NCCC[C@@H](CO)N(CC(C)C)S(=O)(=O)c1ccc(N)cc1` [Example 18, (1S,4S)-(1-{4-[(4-Amino-benzenesulfonyl)-isobutyl-amino]-5-hydroxy-pentylcarbamoyl}-2-naphthalen-1-yl-ethyl)-carbamic Acid Ethyl Ester] stands 3.9 nM.

The record behind these values is patent publication US6632816B1, “Aromatic derivatives as HIV aspartyl protease inhibitors” (Pharmacor Inc., priority 2002, dated 2003).
